Laboratory results reported in publication PMC3196344 (Nature medicine, 2009).

Experiments:
CD4+/CD8+ thymocytes = assay: Flow cytometry of thymocytes from dex-treated mice; format: in vivo, BALB/c mice; details: measured by a drop in this cell population over time; dex 50 mg/kg IP
thymocytes = details: after dex treatment; cited from earlier work
[1] = exposed during late stages of apoptosis; cited from earlier work
[2] = leading to high background signals; cited from earlier work
caspase-3/7 = assay: Caspase labeling in COLO205 tumors of Apomab-treated mice, SDS-PAGE; format: in vivo, human colorectal cancer COLO205 xenograft in nude mice; details: Apomab 10 mg/kg IV; AB50-Cy5 50 nmol IV 1 h; COLO205 xenograft
legumain [3] = assay: Legumain labeling in COLO205 tumors of Apomab-treated mice, SDS-PAGE; format: in vivo, human colorectal cancer COLO205 xenograft in nude mice; details: Apomab 10 mg/kg IV; AB50-Cy5
caspases-3/7 = details: cited from earlier work
cathepsins = details: cited from earlier work
legumain [4] = details: cited from earlier work

Compound: C[C@@H]1C[C@H]2[C@@H]3CCC4=CC(=O)C=C[C@]4(C)[C@@]3(F)[C@@H](O)C[C@]2(C)[C@@]1(O)C(=O)CO [dexamethasone]
- induction of apoptosis in CD4+/CD8+ cells (CD4+/CD8+ thymocytes): specifically induced apoptosis in CD4+/CD8+ cells
- TUNEL+ staining at 18 and 24 hours (thymocytes): sharp decrease

Compound: Annexin V: protein with high affinity for phosphatidylserines exposed during the late stages of apoptosis
- affinity for phosphatidylserines [1]: high affinity
- clearance in vivo [2]: slow clearance in vivo

Compound: Apomab: monoclonal antibody that induces the extrinsic apoptosis pathway by binding to death receptor 5
- time of optimal (peak) caspase activity after Apomab (caspase-3/7): 12 h
- legumain labeling over time course after Apomab (legumain [3]): constant throughout the time course

Compound: Asp-Glu-Val-Asp [DEVD]
- recognition by caspases-3/7 (caspases-3/7): optimal
- recognition by cathepsins (cathepsins): efficiently recognized
- recognition by legumain (legumain [4]): efficiently recognized
